# Reference: patent publication US10899631B2, “Ferrous modified selenium sol for inhibiting accumulation of cadmium and arsenic in rice and preparation method and application thereof” (priority 2018, dated 2021)
# Like-named read-outs stand apart in the source and are kept apart here.
# Key:
# rice [1] = assay type: in vivo, rice variety Huang-Li-Zhan
# Description: (§1) The surface soil (0-30 cm) of a rice field polluted by heavy metals located in Boluo Town, Huizhou City, Guangdong Province was collected and analyzed from April to July of 2016. […] The tested rice variety was Huang-Li-Zhan.
# (§2) There were the following six treatments in the experiment: (1) Blank control (CK): An equal amount of clear water was sprayed. (2) Treatment 1 (T1): The silica sol foliar barrier (prepared in Example 3) was sprayed once on the leaves at the tillering stage of rice when the foliar barrier was diluted 50 times and sprayed at 100 L/mu. (3) Treatment 2 (T2): The selenium sol foliar barrier (prepared in Example 3) was sprayed twice on the leaves, the first at the tillering stage of rice when the foliar barrier was diluted 100 times and sprayed at 50 L/mu, the second at the heading stage of rice when the foliar barrier was diluted 100 times and sprayed at 150 L/mu. (4) Treatment 3 (T3): The selenium sol foliar barrier (prepared in Example 3) was sprayed three times on the leaves, the first at the tillering stage of rice when the foliar barrier was diluted 100 times and sprayed at 80 L/mu, the second at the heading stage of rice when the foliar barrier was diluted 100 times and sprayed at 120 L/mu, the third at the filling stage of rice when the foliar barrier was diluted 250 times and sprayed at 150 L/mu. (5) Treatment 4 (T4): The ferrous sulfate solution containing the iron element at a mass-volume ratio of 0.1% was sprayed on the leaves at the tillering stage of rice at 100 L/mu. (6) Treatment 5 (T5): The sodium selenite solution containing the selenium element at a mass-volume ratio of 0.05% was sprayed on the leaves at the tillering stage of rice at 100 L/mu.
# (§3) It was selected that the above foliar preparations were sprayed at 4-6 pm on a sunny day; when sprayed, the atomized droplets were controlled to be smaller than 1000 microns, and sprayed uniformly on both sides of the rice leaves. Each treatment was repeated four times, randomly arranged. There were totally 36 test plots, each plot having an area of 5×6=30 m^2 to ensure independent drainage and irrigation.
# OsLCT1 = test: Expression level of OsLCT1 in rice suspension cells, real-time fluorescence quantitative PCR; assay type: cell-based, Oryza sativa L. Japonica; conditions: 24 h with treatment, then 10 μM cadmium and 5 μM arsenic for 24 h, CK 4.62 ± 0.10
# Method: (§4) Method of culturing rice suspension cells (Oryza sativa L. Japonica): Selecting mature and plump seeds of Japanese rice Nipponbare, and disinfecting them with 70% alcohol by volume or 30% sodium hypochlorite by mass; evenly sowing the seeds with tweezers onto a plate containing a solid medium, and then placing the plate into an incubator to culture in the dark at a culture temperature of 25° C.; after a period of time, removing hypocotyls from the seeds with tweezers, and culturing the hypocotyls in another solid medium to obtain callus; crushing 10 g of the callus, adding it to a triangular flask containing a liquid medium (50 mL), and culturing in a shaker at 28° C. for about one month to obtain rice suspension cells.
# (§5) The basic components of the above solid medium and liquid medium are consistent, both being an MS medium. The solid medium was prepared by adding agar to the liquid medium (adding […] of the liquid medium, and then heating, melting, cooling and solidifying to obtain the solid medium). The basic formula was as follows: […]
# (§6) In order to study the effect of the ferrous modified selenium sol on the expression level of the cadmium transporter in rice suspension cells, the following treatments were performed on the rice suspension cells: […]
# rice [2] = test: Field test of foliar barriers: content of cadmium in rice; assay type: in vivo, rice variety Huang-Li-Zhan; conditions: for content of cadmium in rice decreased by, compared with the control (CK) / content of cadmium in rice: sprayed once at tillering stage at 100 L/mu (T1, T4, T5); for content of cadmium in rice: control 0.308 mg/kg
# Description: as §1, §2, §3
# rice suspension cells [3] = test: Content of arsenic in rice suspension cells; assay type: cell-based, Oryza sativa L. Japonica; conditions: for As content: 10 μM cadmium and 5 μM arsenic for 24 h, CK 7.12 ± 0.82; for As reduction ratio (inhibition rate of arsenic): compared with the blank control
# Method: as §4, §5
# (§7) Ferrous sulfate, sodium selenite and the ferrous modified selenium sol prepared in Examples 1, 2 and 3 were added to a rice suspension cell system, respectively, so that in the final system the ferrous sulfate solution containing the iron element at a mass-volume ratio of 0.05% (T1), the sodium selenite solution containing the selenium element at a mass-volume ratio of 0.025% (T2), and the ferrous modified selenium sol prepared in Example 1 (T3) were diluted 50 times, the ferrous modified selenium sol prepared in Example 2 was diluted 150 times (T4), and the ferrous modified selenium sol prepared in Example 3 was diluted 100 times (T5). The rice suspension cells without any treatment were used as a control (CK). After 24 h of culture, cadmium and arsenic were added to the culture system, so that the final concentrations of cadmium and arsenic were 10 μM and 5 μM, respectively. With the temperature kept constant at 28° C. in a shaker, the rice cells of each treatment were continuously cultured for 24 h and then collected. RNA was extracted from the rice cells and reversely transcribed, and the expression levels of the genes OsNramp5, OsHMA3, OsLCT1, OsLsi1 and OsLsi2 were detected.
# (§8) The rice cells obtained by the above respective treatments were collected and washed centrifugally with ultrapure water, and then the contents of cadmium and arsenic in the cells were measured.
# rice [4] = test: Field test of foliar barriers: content of inorganic arsenic in rice; assay type: in vivo, rice variety Huang-Li-Zhan; conditions: sprayed once at tillering stage at 100 L/mu (T1, T4, T5); for content of inorganic arsenic in rice: control 0.280 mg/kg
# Description: as §1, §2, §3
# rice suspension cells [5] = test: Content of cadmium in rice suspension cells; assay type: cell-based, Oryza sativa L. Japonica; conditions: for Cd Content: 10 μM cadmium and 5 μM arsenic for 24 h, CK 12.8 ± 0.9; for Cd reduction ratio (inhibition rate of cadmium): compared with the blank control
# Method: as §4, §5, §7, §8
# OsNramp5 = test: Expression level of OsNramp5 in rice suspension cells, real-time fluorescence quantitative PCR; assay type: cell-based, Oryza sativa L. Japonica; conditions: 24 h with treatment, then 10 μM cadmium and 5 μM arsenic for 24 h, CK 4.84 ± 0.15
# Method: as §4, §5, §6
# OsLsi1 = test: Expression level of OsLsi1 in rice suspension cells, real-time fluorescence quantitative PCR; assay type: cell-based, Oryza sativa L. Japonica; conditions: 24 h with treatment, then 10 μM cadmium and 5 μM arsenic for 24 h, CK 4.74 ± 0.11
# Method: as §4, §5, §6
# OsHMA3 = test: Expression level of OsHMA3 in rice suspension cells, real-time fluorescence quantitative PCR; assay type: cell-based, Oryza sativa L. Japonica; conditions: 24 h with treatment, then 10 μM cadmium and 5 μM arsenic for 24 h, CK 1.47 ± 0.07
# Method: as §4, §5, §6
# OsLsi2 = test: Expression level of OsLsi2 in rice suspension cells, real-time fluorescence quantitative PCR; assay type: cell-based, Oryza sativa L. Japonica; conditions: 24 h with treatment, then 10 μM cadmium and 5 μM arsenic for 24 h, CK 4.91 ± 0.21
# Method: as §4, §5, §6
SMILES,OsLCT1 expression (OsLCT1),"content of cadmium in rice decreased by, compared with the control (CK) (rice [2]) [%]",content of cadmium in rice (rice [2]) [mg/kg],As content (rice suspension cells [3]) [µg/g],As reduction ratio (inhibition rate of arsenic) (rice suspension cells [3]) [%],"content of inorganic arsenic in rice decreased by, compared with the control (CK) (rice [4]) [%]",content of inorganic arsenic in rice (rice [4]) [mg/kg],Cd Content (rice suspension cells [5]) [µg/g],Cd reduction ratio (inhibition rate of cadmium) (rice suspension cells [5]) [%],OsNramp5 expression (OsNramp5),OsLsi1 expression (OsLsi1),OsHMA3 expression (OsHMA3),OsLsi2 expression (OsLsi2),further results
O=[Se](O)O [sodium selenite],4.42 ± 0.14,10.1,0.276,4.96 ± 0.53,30.3,16.8,0.232,9.1 ± 1.2,28.9,3.85 ± 0.21,3.11 ± 0.17,2.15 ± 0.14,3.07 ± 0.11,"yield of rice decreased by (rice [1]; field, T5: sprayed once at tillering stage at 100 L/mu, 0.05% Se, compared with CK): 3.8%; Plot average yield (rice [1]; field, sprayed once at tillering stage at 100 L/mu (T1, T4, T5), CK 28.05): 26.95c kg; Dry production per mu (rice [1]; field, sprayed once at tillering stage at 100 L/mu (T1, T4, T5), CK 386): 371 kg; Wet production per mu (rice [1]; field, sprayed once at tillering stage at 100 L/mu (T1, T4, T5), CK 623): 599 kg; Yield increase ratio (rice [1]; field, sprayed once at tillering stage at 100 L/mu (T1, T4, T5), compared with CK): −3.8%; Plot yield II (rice [1]; field, sprayed once at tillering stage at 100 L/mu (T1, T4, T5), plot II, CK 30.15): 27.15 kg; Plot yield III (rice [1]; field, sprayed once at tillering stage at 100 L/mu (T1, T4, T5), plot III, CK 28.95): 29.12 kg; Plot yield IV (rice [1]; field, sprayed once at tillering stage at 100 L/mu (T1, T4, T5), plot IV, CK 24.3): 26.13 kg; Plot yield I (rice [1]; field, sprayed once on leaves at tillering stage at 100 L/mu (T1: sol diluted 50 times; T4: ferrous sulfate 0.1% Fe; T5: sodium selenite 0.05% Se), plot I, 30 m^2, CK 28.65): 25.41 kg"
O=S(=O)([O-])[O-].[Fe+2] [ferrous sulfate],3.82 ± 0.11,18.8,0.250,6.89 ± 0.71,3.2,18.7,0.255,8.3 ± 0.6,35.2,3.15 ± 0.16,4.15 ± 0.16,2.53 ± 0.12,4.78 ± 0.27,"Dry production per mu (rice [1]; in vivo): 410 kg; Plot average yield (rice [1]; in vivo): 30.04abc kg; Plot yield I (rice [1]; in vivo): 29.4 kg; Plot yield II (rice [1]; in vivo): 30.75 kg; Plot yield III (rice [1]; in vivo): 30.3 kg; Wet production per mu (rice [1]; in vivo): 668 kg; Yield increase ratio (rice [1]; in vivo): 6.4%; Plot yield IV (rice [1]; in vivo, iv): 29.7 kg; cadmium and inorganic arsenic content of the treated rice against the food hygiene standard (rice [2]; sol in regimens T1, T2 and T3, ferrous sulfate T4, sodium selenite T5): still exceeded the food hygiene standard"
